From patent publication US8207188B2, “Treatment of diseases modulated by a H4 receptor agonist” (priority 2006, dated 2012) come the findings set out here.

What is called inhibition is the percentage by which the read-out fell short of the control.

Molecules are shown by their SMILES.

For the test, the target named is T1, recombinant human HDC (Homo sapiens, UniProt P19113).
T1 construct: The DNA encoding for residues 1-512 of human HDC; GST (fusion partner of the pGEX-6P-1 vector) (N, cleaved yes); made in house; host or cells: Escherichia coli BL21(DE3)pLysS
T1 sequence (P19113 1-512): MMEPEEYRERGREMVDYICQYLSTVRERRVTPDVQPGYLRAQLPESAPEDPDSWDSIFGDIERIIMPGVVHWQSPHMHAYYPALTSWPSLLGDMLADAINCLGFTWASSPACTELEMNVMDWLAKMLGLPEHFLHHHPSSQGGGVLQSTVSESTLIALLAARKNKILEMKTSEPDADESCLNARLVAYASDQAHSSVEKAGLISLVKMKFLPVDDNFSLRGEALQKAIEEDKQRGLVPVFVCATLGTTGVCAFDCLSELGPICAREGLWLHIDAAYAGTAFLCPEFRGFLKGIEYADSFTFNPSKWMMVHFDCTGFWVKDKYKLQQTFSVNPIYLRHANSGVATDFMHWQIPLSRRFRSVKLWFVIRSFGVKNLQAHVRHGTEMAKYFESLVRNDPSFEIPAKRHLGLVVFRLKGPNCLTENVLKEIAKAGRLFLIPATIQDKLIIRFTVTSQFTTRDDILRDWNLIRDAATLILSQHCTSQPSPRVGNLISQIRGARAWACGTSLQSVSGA
Briefly: Human-HDC activity determination (14CO2 from L-[U-14C]histidine). The test is classed as biochemical. The conditions noted are these: 10 μM final. From the text:
The DNA encoding for residues 1-512 of human HDC was subcloned in the pGEX-6P-1 vector (GE-Healthcare). The recombinant plasmid transformed into the Escherichia coli BL21(DE3)pLysS strain. Transformed cultures were induced to express the HDC 1/512, which was purified by affinity chromatography using Glutathione sepharose (GE-Healthcare). 1/512 HDC was released from the fusion protein bound to the affinity chromatography support by digestion with the Pre-Scission™ protease (GE-Healthcare). The final preparations were dissolved in 50 mM potassium phosphate, 0.1 mM PLP, pH 7.0. Purity of the HDC 1/512 construct was checked by Coomassie blue staining and Western blotting, and was higher than 95% in the final preparations.
HDC activity was assayed, as described in Engel at al. (1996) Biochem J. 320: 365-368, by measuring the production of ^14CO2 from L-[U-^14C]histidine (GE-Healthcare) in a mixture containing 0.2 mM dithiothreitol, 10 μM PLP, 10 mg/ml poly(ethylene glycol)-300, 100 mM potassium phosphate, pH 6.8, and purified protein in a total volume of 100 μL. When recombinant HDC was used, the concentration of L[U-^14C]histidine was 13.3 μM (with ⅓ isotopic dilution). The released ^14CO2 was measured as previously described for HDC activity determinations (Urdiales et al. (1992) FEBS Lett. 305, 260-264).
10 μM concentration of each isomer, A and B (A corresponds to the isolated pure isomer eluting at 5.9 minutes, B corresponds to the isolated pure isomer eluting at 7.1 minutes of the chromatogram shown in FIG. 4 (bottom)) and their corresponding racemic mixture (starting material prior to separating the individual isomers, indicated as A+B) along with 4 μg of recombinant human HDC were used to asses the inhibitory effect of each isomer and the mixture on the enzymatic conversion of histidine to histamine. Results are presented as means of duplicates samples.

As to `CCOc1c(N)c2c(c(OCC)c1OCC)C(C1c3c(cc4c(c3OC)OCO4)CCN1C)OC2=O` (racemic) [Tritoqualine, 7-Amino-4,5,6-triethoxy-3-(5,6,7,8-tetrahydro-4-methoxy-6-methyl-1,3-dioxolo[4,5-g]isoquinolin-5-yl) phthalide], the inhibition at 10 µM is 17.5%. Moreover, the DPM (4 μg recombinant human HDC, means of duplicates, control 12340) was 10176 DPM. Further, the Activity (control 0.35) was 0.29 µmol/h. Further, under “control 87.00”, the Specific activity is reported as 71.74 μmole/h · mg prot. The remaining activity at 10 µM (read-out: % of control) was 82.5%.
